For the assay, the target named is T1, AM2 receptor (CALCRL+RAMP3) (Homo sapiens, UniProt O60896+Q16602).
T1 construct: host or cells: 1321N1
Briefly: AM2 receptor inhibition, LANCE TR-FRET cAMP agonist-antagonist competition assay. It is filed as cell-based. Conditions: inhibition of AM induced cAMP activation; 1321N1 cells transfected with CALCRL+RAMP3; read-out: AM2 pIC50 (converted).

Where a name gives a salt, the structure may show the parent alone.

T1 sequence (Q16602 23-461): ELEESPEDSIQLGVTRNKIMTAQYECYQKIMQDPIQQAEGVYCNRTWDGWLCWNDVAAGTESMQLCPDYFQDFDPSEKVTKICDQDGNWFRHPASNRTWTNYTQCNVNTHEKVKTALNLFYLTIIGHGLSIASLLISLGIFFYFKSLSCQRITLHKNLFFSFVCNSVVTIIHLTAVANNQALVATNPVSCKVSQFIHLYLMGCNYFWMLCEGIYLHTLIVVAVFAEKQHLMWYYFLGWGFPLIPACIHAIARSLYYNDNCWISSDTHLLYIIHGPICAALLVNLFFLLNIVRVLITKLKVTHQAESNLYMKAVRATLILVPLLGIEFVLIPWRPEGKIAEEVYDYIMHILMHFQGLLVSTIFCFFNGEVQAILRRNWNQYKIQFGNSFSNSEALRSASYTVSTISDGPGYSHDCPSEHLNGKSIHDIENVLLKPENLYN
T1 sequence (O60896 24-148): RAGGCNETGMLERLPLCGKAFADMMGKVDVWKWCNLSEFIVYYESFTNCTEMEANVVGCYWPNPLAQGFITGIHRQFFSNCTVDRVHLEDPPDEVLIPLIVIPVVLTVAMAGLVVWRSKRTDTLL

Take `CNCc1ccccc1CN(CC(=O)Nc1ccc2c(c1)CC1(C2)C(=O)Nc2ncccc21)C(=O)C1CCN(C(C)=O)CC1` (centres unmarked) [Example 79, 1-Acetyl-N-(2-((methylamino)methyl)benzyl)-N-(2-oxo-2-((2′-oxo-1,1′,2′,3-tetrahydrospiro[indene-2,3′-pyrrolo[2,3-b]pyridin]-5-yl)amino)ethyl)piperidine-4-carboxamide]: the IC50 is 22.4 nM.
The result for `CNCc1ccccc1CN(CC(=O)Nc1ccc2c(c1)CC1(C2)C(=O)Nc2ncccc21)C(=O)C1CCOC1` (centres unmarked) [Example 80, N-(2-((Methylamino)methyl)benzyl)-N-(2-oxo-2-((2′-oxo-1,1′,2′,3-tetrahydrospiro[indene-2,3′-pyrrolo[2,3-b]pyridin]-5-yl)amino)ethyl)tetrahydrofuran-3-carboxamide] reads 14.8 nM; that for `CNCc1ccccc1CN(CC(=O)Nc1ccc2c(c1)CC1(C2)C(=O)Nc2ncccc21)C(=O)N1CCCC1` (centres unmarked) [Example 81, N-(2-((Methylamino)methyl)benzyl)-N-(2-oxo-2-((2′-oxo-1,1′,2′,3-tetrahydrospiro[indene-2,3′-pyrrolo[2,3-b]pyridin]-5-yl)amino)ethyl)pyrrolidine-1-carboxamide], 7.41 nM; that for `CNCc1ccccc1CN(CC(=O)Nc1ccc2c(c1)CC1(C2)C(=O)Nc2ncccc21)C(=O)N(C)OC` (centres unmarked) [Example 82, 2-(3-Methoxy-3-methyl-1-(2-((methylamino)methyl)benzyl)ureido)-N-(2′-oxo-1,1′,2′,3-tetrahydrospiro[indene-2,3′-pyrrolo[2,3-b]pyridin]-5-yl)acetamide], 263 nM.
In the case of `CNCc1ccccc1CN(CC(=O)Nc1ccc2c(c1)CC1(C2)C(=O)Nc2ncccc21)C(=O)NC1CCCC1` (centres unmarked) [Example 83, 2-(3-Cyclopentyl-1-(2-((methylamino)methyl)benzyl)ureido)-N-(2′-oxo-1,1′,2′,3-tetrahydrospiro[indene-2,3′-pyrrolo[2,3-b]pyridin]-5-yl)acetamide], the IC50 was 42.7 nM.
In the case of `CNCc1ccccc1CN(CC(=O)Nc1ccc2c(c1)CC1(C2)C(=O)Nc2ncccc21)C(=O)NC(C)C` (centres unmarked) [Example 84, 2-(3-Isopropyl-1-(2-((methylamino)methyl)benzyl)ureido)-N-(2′-oxo-1,1′,2′,3-tetrahydrospiro[indene-2,3′-pyrrolo[2,3-b]pyridin]-5-yl)acetamide], the IC50 was 52.5 nM.
The result for `CNCc1ccccc1CN(CC(=O)Nc1ccc2c(c1)CC1(C2)C(=O)Nc2ncccc21)C(=O)N(C)C` (centres unmarked) [Example 85, 2-(3,3-Dimethyl-1-(2-((methylamino)methyl)benzyl)ureido)-N-(2′-oxo-1,1′,2′,3-tetrahydrospiro[indene-2,3′-pyrrolo[2,3-b]pyridin]-5-yl)acetamide] reads 234 nM; that for `CNCc1ccccc1CN(CC(=O)Nc1ccc2c(c1)CC1(C2)C(=O)Nc2ncccc21)C(=O)N1CCCCC1` (centres unmarked) [Example 87, N-(2-((Methylamino)methyl)benzyl)-N-(2-oxo-2-((2′-oxo-1,1′,2′,3-tetrahydrospiro[indene-2,3′-pyrrolo[2,3-b]pyridin]-5-yl)amino)ethyl)piperidine-1-carboxamide], 43.7 nM.
The result for `CNCc1ccccc1CN(CC(=O)Nc1ccc2c(c1)CC1(C2)C(=O)Nc2ncccc21)C(=O)C1CCNCC1` (centres unmarked) [Example 88, N-(2-((Methylamino)methyl)benzyl)-N-(2-oxo-2-((2′-oxo-1,1′,2′,3-tetrahydrospiro[indene-2,3′-pyrrolo[2,3-b]pyridin]-5-yl)amino)ethyl)piperidine-4-carboxamide] reads 148 nM.
The result for `CNCc1ccccc1CN(CC(=O)Nc1ccc2c(c1)CC1(C2)C(=O)Nc2ncccc21)C(=O)N1CCC2(CCNCC2)CC1` (centres unmarked) [Example 89, N-(2-((Methylamino)methyl)benzyl)-N-(2-oxo-2-((2′-oxo-1,1′,2′,3-tetrahydrospiro[indene-2,3′-pyrrolo[2,3-b]pyridin]-5-yl)amino)ethyl)-3,9-diazaspiro[5.5]undecane-3-carboxamide] reads 87.1 nM.
In the case of `CNCc1ccccc1CN(CC(=O)Nc1ccc2c(c1)CC1(C2)C(=O)Nc2ncccc21)C(=O)N1CCC2(CCNCC2)C1` (centres unmarked) [Example 90, N-(2-((Methylamino)methyl)benzyl)-N-(2-oxo-2-((2′-oxo-1,1′,2′,3-tetrahydrospiro[indene-2,3′-pyrrolo[2,3-b]pyridin]-5-yl)amino)ethyl)-2,8-diazaspiro[4.5]decane-2-carboxamide], the IC50 is 501 nM.
To `CNCc1ccccc1CN(CC(=O)Nc1ccc2c(c1)CC1(C2)C(=O)Nc2ncccc21)C(=O)C(C)(C)c1ccc(CN2CCNCC2)cc1` (centres unmarked) [Example 91, 2-Methyl-N-(2-((methylamino)methyl)benzyl)-N-(2-oxo-2-((2′-oxo-1,1′,2′,3-tetrahydrospiro[indene-2,3′-pyrrolo[2,3-b]pyridin]-5-yl)amino)ethyl)-2-(4-(piperazin-1-ylmethyl)phenyl)propanamide] belongs 24 nM.
The result for `CNCc1ccccc1CN(CC(=O)Nc1ccc2c(c1)C[C@@]1(C2)C(=O)Nc2ncccc21)C(=O)C12CC3CC(CC(C3)C1)C2` [Example 92, N-[[2-(methylaminomethyl)phenyl]methyl]-N-[2-oxo-2-[[(3R)-2-oxospiro[1H-pyrrolo[2,3-b]pyridine-3,2′-indane]-5′-yl]amino]ethyl]adamantane-1-carboxamide 2,2,2-trifluoroacetate] reads 79.4 nM.
In the case of `CNCc1ccccc1CN(CC(=O)Nc1ccc2c(c1)C[C@@]1(C2)C(=O)Nc2ncccc21)C(=O)C1(C(F)(F)F)CCCC1` [Example 94, N-[[2-(methylaminomethyl)phenyl]methyl]-N-[2-oxo-2-[[(3R)-2-oxospiro[1H-pyrrolo[2,3-b]pyridine-3,2′-indane]-5′-yl]amino]ethyl]-1-(trifluoromethyl)cyclopentanecarboxamide 2,2,2-trifluoroacetate], the IC50 was 17.8 nM.
To `CNCc1ccccc1CN(CC(=O)Nc1ccc2c(c1)C[C@@]1(C2)C(=O)Nc2ncccc21)C(=O)C(C)(C)F` [Example 95, (R)-2-Fluoro-2-methyl-N-(2-((methylamino)methyl)benzyl)-N-(2-oxo-2-((2′-oxo-1,1′,2′,3-tetrahydrospiro[indene-2,3′-pyrrolo[2,3-b]pyridin]-5-yl)amino)ethyl)propanamide 2,2,2-trifluoroacetate] belongs 28.8 nM; to `CNCc1ccccc1CN(CC(=O)Nc1ccc2c(c1)C[C@@]1(C2)C(=O)Nc2ncccc21)C(=O)C(C)(C)C(F)(F)F` [Example 96, 3,3,3-trifluoro-2,2-dimethyl-N-[[2-(methylaminomethyl)phenyl]methyl]-N-[2-oxo-2-[[(3R)-2-oxospiro[1H-pyrrolo[2,3-b]pyridine-3,2′-indane]-5′-yl]amino]ethyl]propanamide 2,2,2-trifluoroacetate], 49 nM; to `CNCc1ccccc1CN(CC(=O)Nc1ccc2c(c1)C[C@@]1(C2)C(=O)Nc2ncccc21)C(=O)C(C)(C)CC(F)(F)F` [Example 97, 4,4,4-Trifluoro-2,2-dimethyl-N-[[2-(methylaminomethyl)phenyl]methyl]-N-[2-oxo-2-[[(3R)-2-oxospiro[1H-pyrrolo[2,3-b]pyridine-3,2′-indane]-5′-yl]amino]ethyl]butanamide 2,2,2-trifluoroacetate], 60.3 nM.
With `CCC1(C(=O)N(CC(=O)Nc2ccc3c(c2)C[C@@]2(C3)C(=O)Nc3ncccc32)Cc2ccccc2CNC)CCOCC1` [Example 98, 4-Ethyl-N-[[2-(methylaminomethyl)phenyl]methyl]-N-[2-oxo-2-[[(3R)-2-oxospiro[1H-pyrrolo [2,3-b]pyridine-3,2′-indane]-5′-yl]amino]ethyl]tetrahydropyran-4-carboxamide 2,2,2 trifluoroacetate], the IC50 is 21.4 nM.
The result for `NCc1ccccc1CN(CC(=O)Nc1ccc2c(c1)C[C@@]1(C2)C(=O)Nc2ncccc21)C(=O)C1(C(F)(F)F)CC1` [Example 99, N-[[2-(Aminomethyl)phenyl]methyl]-N-[2-oxo-2-[(2-oxospiro[1H-pyrrolo[2,3-b]pyridine-3,2′-indane]-5′-yl)amino]ethyl]-1-(trifluoromethyl)cyclopropylcarboxamide 2,2,2-trifluoroacetate] reads 245 nM; that for `CNCc1ccccc1CN(CC(=O)Nc1ccc2c(c1)C[C@@]1(C2)C(=O)Nc2ncccc21)C(=O)C12CC(NC(C)=O)(C1)C2` [Example 100, 3-Acetamido-N-[[2-(methylaminomethyl)phenyl]methyl]-N-[2-oxo-2-[[(3R)-2-oxospiro[1H-pyrrolo[2,3-b]pyridine-3,2′-indane]-5′-yl]amino]ethyl]bicyclo[1.1.1]pentane-1-carboxamide 2,2,2-trifluoroacetate], 309 nM; that for `CC(C)(C)C(=O)N(CC(=O)Nc1ccc2c(c1)C[C@@]1(C2)C(=O)Nc2ncccc21)C1CNCc2ccccc21` (some centres unmarked) [Example 101, 2,2-Dimethyl-N-[2-oxo-2-[(2-oxospiro[1H-pyrrolo[2,3-b]pyridine-3,2′-indane]-5′-yl)amino]ethyl]-N-(1,2,3,4-tetrahydroisoquinolin-4-yl)propanamide 2,2,2-trifluoroacetate], 39.8 nM.
The result for `CNCc1ccccc1CN(CC(=O)Nc1cc2c(cn1)CC1(C2)C(=O)Nc2ncccc21)C(=O)C(C)(C)C` (centres unmarked) [Example 103, N-(2-((Methylamino)methyl)benzyl)-N-(2-oxo-2-((2′-oxo-1′,2′,5,7-tetrahydrospiro[cyclopenta[c]pyridine-6,3′-pyrrolo[2,3-b]pyridin]-3-yl)amino)ethyl)pivalamide] reads 24 nM; that for `CNCc1ccccc1CN(CC(=O)Nc1ccc2c(n1)CC1(C2)C(=O)Nc2ncccc21)C(=O)C(C)(C)C` (centres unmarked) [Example 104, N-(2-((methylamino)methyl)benzyl)-N-(2-oxo-2-((2′-oxo-1′,2′,5,7-tetrahydrospiro[cyclopenta[b]pyridine-6,3′-pyrrolo[2,3-b]pyridin]-2-yl)amino)ethyl)pivalamide], 151 nM.

Values taken from US11400081B2, “Compounds” (The University of Sheffield, priority 2017, dated 2022).
